Source: PubChem BioAssay AID1963843 (Molecular Pharmacology Branch, DTP, NCI, 2024)

Tested on: 616215-338-R-J1-PDC complex spheroid viability
Test: Anticancer human tumor 616215-338-R-J1-PDC patient-derived colon adenocarcinoma cell line growth inhibition [POLQ]
Details: for IC50: curve of first compound; for viability, T/C: stronger effect = lower value
Outline: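 Patient-derived tumour cells were co-cultured with HUVEC and mesenchymal stem cells as multicellular spheroids at 37 °C. They were treated with POLQ inhibitors (novobiocin, ART-558, RP6685) alone or combined with other agents. Top concentrations were at or near clinical Cmax (otherwise 10 microM; SN-38 at 1 microM), decreasing in half-log steps.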

[1] = second compound 0.0316 µM, first compound 0.0316 µM
[2] = second compound 0.0316 µM, first compound 0.1 µM
[3] = second compound 0.0316 µM, first compound 0.316 µM
[4] = second compound 0.0316 µM, first compound 1 µM
[5] = second compound 0.0316 µM, first compound 3.16 µM
[6] = second compound 0.0316 µM, first compound 10 µM
[7] = second compound 0.1 µM, first compound 0.0316 µM
[8] = second compound 0.1 µM, first compound 0.1 µM
[9] = second compound 0.1 µM, first compound 0.316 µM
[10] = second compound 0.1 µM, first compound 1 µM
[11] = second compound 0.1 µM, first compound 3.16 µM
[12] = second compound 0.1 µM, first compound 10 µM
[13] = second compound 0.316 µM, first compound 0.0316 µM
[14] = second compound 0.316 µM, first compound 0.1 µM
[15] = second compound 0.316 µM, first compound 0.316 µM
[16] = second compound 0.316 µM, first compound 1 µM
[17] = second compound 0.316 µM, first compound 3.16 µM
[18] = second compound 0.316 µM, first compound 10 µM
[19] = second compound 1 µM, first compound 0.0316 µM
[20] = second compound 1 µM, first compound 0.1 µM
[21] = second compound 1 µM, first compound 0.316 µM
[22] = second compound 1 µM, first compound 1 µM
[23] = second compound 1 µM, first compound 3.16 µM
[24] = second compound 1 µM, first compound 10 µM
[25] = second compound 3.16 µM, first compound 0.0316 µM
[26] = second compound 3.16 µM, first compound 0.1 µM
[27] = second compound 3.16 µM, first compound 0.316 µM
[28] = second compound 3.16 µM, first compound 1 µM
[29] = second compound 3.16 µM, first compound 3.16 µM
[30] = second compound 3.16 µM, first compound 10 µM
[31] = second compound 10 µM, first compound 0.0316 µM
[32] = second compound 10 µM, first compound 0.1 µM
[33] = second compound 10 µM, first compound 0.316 µM
[34] = second compound 10 µM, first compound 1 µM
[35] = second compound 10 µM, first compound 3.16 µM
[36] = second compound 10 µM, first compound 10 µM
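Further: spheroids exposed to compounds for one week before readout.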
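Wherever viability, T/C is given: percent viability relative to DMSO vehicle wells taken as 100%.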

Q: Which results are given for `COc1cc(C2c3cc4c(cc3C(OC3OC5COC(C)OC5C(O)C3O)C3COC(=O)C23)OCO4)cc(OC)c1O` (stereo unspecified) + Nc1ccc(C#CCN(C(=O)Cc2ncc(C(F)(F)F)cc2C(F)(F)F)c2ccc(F)cc2)nn1?
A: IC50 (second compound 0.0316 µM): 327 nM; IC50 (second compound 0.1 µM): 812 nM; IC50 (second compound 0.316 µM): 732 nM; IC50 (second compound 1 µM): 489 nM; IC50 (second compound 3.16 µM): 314 nM; IC50 (second compound 10 µM): 268 nM; viability, T/C [1]: 106%; viability, T/C [2]: 83.9%; viability, T/C [3]: 46.2%; viability, T/C [4]: 45.8%; viability, T/C [5]: 41.9%; viability, T/C [6]: 24.9%; viability, T/C [7]: 107%; viability, T/C [8]: 92.4%; viability, T/C [9]: 57.6%; viability, T/C [10]: 51.3%; viability, T/C [11]: 36.4%; viability, T/C [12]: 27.7%; viability, T/C [13]: 108%; viability, T/C [14]: 87.8%; viability, T/C [15]: 65.4%; viability, T/C [16]: 42.3%; viability, T/C [17]: 35.9%; viability, T/C [18]: 26.4%; viability, T/C [19]: 98.4%; viability, T/C [20]: 86.3%; viability, T/C [21]: 56.5%; viability, T/C [22]: 37%; viability, T/C [23]: 36%; viability, T/C [24]: 24.8%; viability, T/C [25]: 94.7%; viability, T/C [26]: 67.5%; viability, T/C [27]: 48.6%; viability, T/C [28]: 37.9%; viability, T/C [29]: 38.3%; viability, T/C [30]: 24.4%; viability, T/C [31]: 83.4%; viability, T/C [32]: 64%; viability, T/C [33]: 49.8%; viability, T/C [34]: 34.3%; viability, T/C [35]: 32.3%; viability, T/C [36]: 30.9%

Q: Which IC50 (second compound 0.0316 µM) does the source give for `COc1cccc(OCCCN)c1-c1cc(Nc2cnc(C#N)cn2)n[nH]1` + Cc1cccc(N(C)C(=O)C2C(O)CCN2c2nc(C)cc(C(F)(F)F)c2C#N)c1 here?
A: 92.9 nM

Q: And the IC50 (second compound 0.1 µM)?
A: 62.2 nM

Q: What about the IC50 (second compound 0.316 µM) of the same compound?
A: 58.3 nM

Q: What about the IC50 (second compound 1 µM) of the same compound?
A: 53.8 nM

Q: And the IC50 (second compound 3.16 µM)?
A: 56.1 nM

Q: What about the IC50 (second compound 10 µM) of the same compound?
A: 37.4 nM

Q: And the viability, T/C (second compound 0.0316 µM, first compound 0.00316 µM)?
A: 94.8%

Q: And the viability, T/C (second compound 0.0316 µM, first compound 0.01 µM)?
A: 89.4%

Q: And the viability, T/C [1]?
A: 73.1%

Q: What about the viability, T/C [2] of the same compound?
A: 47.9%

Q: And the viability, T/C [3]?
A: 38.9%

Q: What about the viability, T/C [4] of the same compound?
A: 35.3%

Q: And the viability, T/C (second compound 0.1 µM, first compound 0.00316 µM)?
A: 107%

Q: What about the viability, T/C (second compound 0.1 µM, first compound 0.01 µM) of the same compound?
A: 97.8%

Q: And the viability, T/C [7]?
A: 57.3%

Q: And the viability, T/C [8]?
A: 47.8%

Q: What about the viability, T/C [9] of the same compound?
A: 34.3%

Q: What about the viability, T/C [10] of the same compound?
A: 29.9%

Q: What about the viability, T/C (second compound 0.316 µM, first compound 0.00316 µM) of the same compound?
A: 99%

Q: And the viability, T/C (second compound 0.316 µM, first compound 0.01 µM)?
A: 86.1%

Q: And the viability, T/C [13]?
A: 61.7%

Q: What about the viability, T/C [14] of the same compound?
A: 38.3%

Q: What about the viability, T/C [15] of the same compound?
A: 37%

Q: And the viability, T/C [16]?
A: 29.3%

Q: What about the viability, T/C (second compound 1 µM, first compound 0.00316 µM) of the same compound?
A: 108%

Q: What about the viability, T/C (second compound 1 µM, first compound 0.01 µM) of the same compound?
A: 89.9%

Q: What about the viability, T/C [19] of the same compound?
A: 56.1%

Q: What about the viability, T/C [20] of the same compound?
A: 41.3%

Q: What about the viability, T/C [21] of the same compound?
A: 35.8%

Q: What about the viability, T/C [22] of the same compound?
A: 26.7%

Q: And the viability, T/C (second compound 3.16 µM, first compound 0.00316 µM)?
A: 86.8%

Q: What about the viability, T/C (second compound 3.16 µM, first compound 0.01 µM) of the same compound?
A: 82.9%

Q: What about the viability, T/C [25] of the same compound?
A: 60.4%

Q: What about the viability, T/C [26] of the same compound?
A: 38.4%

Q: And the viability, T/C [27]?
A: 43.8%

Q: What about the viability, T/C [28] of the same compound?
A: 29.1%

Q: What about the viability, T/C (second compound 10 µM, first compound 0.00316 µM) of the same compound?
A: 104%

Q: And the viability, T/C (second compound 10 µM, first compound 0.01 µM)?
A: 81.3%

Q: And the viability, T/C [31]?
A: 47.5%

Q: And the viability, T/C [32]?
A: 38.3%

Q: What about the viability, T/C [33] of the same compound?
A: 34.7%

Q: And the viability, T/C [34]?
A: 21.2%

Q: With `CC1COCCN1c1cc(-c2ccnn2C)c2ccnc(-c3ccn[nH]3)c2n1` (stereo unspecified) + Nc1ccc(C#CCN(C(=O)Cc2ncc(C(F)(F)F)cc2C(F)(F)F)c2ccc(F)cc2)nn1 as the compound, how does the IC50 (second compound 0.0316 µM) read?
A: 155 nM

Q: And the IC50 (second compound 0.1 µM)?
A: 165 nM

Q: And the IC50 (second compound 0.316 µM)?
A: 190 nM

Q: What about the IC50 (second compound 1 µM) of the same compound?
A: 115 nM

Q: And the IC50 (second compound 3.16 µM)?
A: 192 nM

Q: And the IC50 (second compound 10 µM)?
A: 154 nM

Q: What about the viability, T/C [1] of the same compound?
A: 86%

Q: And the viability, T/C [2]?
A: 56.8%

Q: What about the viability, T/C [3] of the same compound?
A: 38.9%

Q: What about the viability, T/C [4] of the same compound?
A: 31.7%

Q: What about the viability, T/C [5] of the same compound?
A: 25.9%

Q: And the viability, T/C [6]?
A: 27.4%

Q: What about the viability, T/C [7] of the same compound?
A: 93.8%

Q: And the viability, T/C [8]?
A: 60.6%

Q: What about the viability, T/C [9] of the same compound?
A: 34.7%

Q: And the viability, T/C [10]?
A: 29.8%

Q: And the viability, T/C [11]?
A: 24.5%

Q: And the viability, T/C [12]?
A: 19.4%

Q: What about the viability, T/C [13] of the same compound?
A: 102%

Q: And the viability, T/C [14]?
A: 67.4%

Q: What about the viability, T/C [15] of the same compound?
A: 35.2%

Q: And the viability, T/C [16]?
A: 26.8%

Q: And the viability, T/C [17]?
A: 22.4%

Q: And the viability, T/C [18]?
A: 18.9%

Q: What about the viability, T/C [19] of the same compound?
A: 101%

Q: What about the viability, T/C [20] of the same compound?
A: 52.9%

Q: What about the viability, T/C [21] of the same compound?
A: 29%

Q: What about the viability, T/C [22] of the same compound?
A: 26.8%

Q: What about the viability, T/C [23] of the same compound?
A: 21.6%

Q: And the viability, T/C [24]?
A: 23.1%

Q: And the viability, T/C [25]?
A: 96.7%

Q: And the viability, T/C [26]?
A: 59.5%

Q: What about the viability, T/C [27] of the same compound?
A: 45.8%

Q: And the viability, T/C [28]?
A: 24.8%

Q: And the viability, T/C [29]?
A: 23.6%

Q: And the viability, T/C [30]?
A: 18.7%

Q: And the viability, T/C [31]?
A: 104%

Q: And the viability, T/C [32]?
A: 56.4%

Q: And the viability, T/C [33]?
A: 40.1%

Q: And the viability, T/C [34]?
A: 25.1%

Q: And the viability, T/C [35]?
A: 20.1%

Q: What about the viability, T/C [36] of the same compound?
A: 22.2%
